Laboratory results as given in patent publication US20030220329A1, “Method of improving beta-adrenergic receptor function” (DUKE UNIVERSITY, priority 1999, published 2003).
Marks after values point to notes of the source that are not given here.

How the values were obtained:
[1] = Fasting plasma glucose, insulin and leptin; format: in vivo, B6 mice; conditions: for Fasting plasma glucose: termination of / throughout the study
Experimental: (§1) Animals and Diets. Seventy-five 4-week old B6 male mice were obtained from Jackson Laboratories (Bar Harbor, Me.). The animals were housed 5 per cage in a temperature controlled (22° C.) room with a 12 hour light/dark cycle (lights off at 19:00). The HF and low fat (LF) experimental diets were manufactured by Research Diets (New Brunswick, N.J.), and contain 58% and 11% of calories from fat, respectively. The composition of these diets have been described in detail elsewhere (Surwit et al. Metabolism 44:645-651 (1995)). A group of 60 mice were fed the HF diet for the first four weeks of the study; the remaining 15 mice were fed the LF diet. The mice assigned to the LF diet were maintained on this diet throughout the study as a reference group of lean control mice. At week 4, all HF-fed mice were assigned to 4 groups of 15 mice each. The first group remained on the HF diet throughout the study as the “obese” control group. The remaining 3 groups of mice were fed the HF diet containing either the β3AR agonist CL316,243 (CL), diazoxide (Dz) or the combination of the two compounds (CLDz). The CL concentration in the diets was 1 mg/kg (0.001%). This dose had originally been recommended by Dr. Thomas Claus, of Lederle Laboratories and found to be differentially effective in reducing obesity in obesity-prone B6 and obesity-resistant A/J mice (Collins et al, Obes. Res. 43:83-86 5:6S (1997)). The Dz concentration in the diets was 3.2 g/kg (0.32%) was determined to be the maximally effective dose for weight-reduction in dose-response pilot studies.
Glucose, Insulin, and Leptin. Samples for analysis of insulin, glucose, and leptin were collected as previously reported (Surwit et al. Metabolism 44:645-651 (1995), Collins et al., Endocrinology 138:405-413 (1997)) at day 24 (4 days before the diets were changed), at day 32 (4 days after the change) and biweekly thereafter. In all cases, food was removed 8 hours before samples were collected. Glucose was analyzed by the glucose oxidase method (Beckman Glucose Analyzer II). Insulin and leptin concentrations were determined by double antibody radioimmunoassay (Linco Research, St. Louis. Mo.). The insulin assay was based on a rat standard and the leptin assay used a mouse standard.

β3AR mRNA = assay: Northern blot, β3AR mRNA in EWAT; format: in vivo, B6 mice; conditions: normalized to cyclophilin
[2] = Postprandial plasma triglycerides and non-esterified fatty acids; format: in vivo, B6 mice; conditions: at termination of the study, HF diet + drug for 4 weeks
Experimental: Animals and Diets. Seventy-five 4-week old B6 male mice were obtained from Jackson Laboratories (Bar Harbor, Me.). The animals were housed 5 per cage in a temperature controlled (22° C.) room with a 12 hour light/dark cycle (lights off at 19:00). The HF and low fat (LF) experimental diets were manufactured by Research Diets (New Brunswick, N.J.), and contain 58% and 11% of calories from fat, respectively. The composition of these diets have been described in detail elsewhere (Surwit et al. Metabolism 44:645-651 (1995)). A group of 60 mice were fed the HF diet for the first four weeks of the study; the remaining 15 mice were fed the LF diet. The mice assigned to the LF diet were maintained on this diet throughout the study as a reference group of lean control mice. At week 4, all HF-fed mice were assigned to 4 groups of 15 mice each. The first group remained on the HF diet throughout the study as the “obese” control group. […] The Dz concentration in the diets was 3.2 g/kg (0.32%) was determined to be the maximally effective dose for weight-reduction in dose-response pilot studies.
Triglycerides and Non-Esterified Fatty Acids. At the termination of the study, a postprandial plasma sample was collected and analyzed for triglyceride and non-esterified fatty acid (NEFA) concentrations using kits from WAKO Diagnostics (Richmond. Va.).

β3AR = target: T1, β3AR (Mus musculus, UniProt P25962); assay: β3AR-stimulated adenylyl cyclase activity in EWAT plasma membranes from treated animals; format: biochemical, B6 mice; conditions: membranes from treated HF-fed animals
T1 construct: from tissue
T1 sequence (P25962 whole entry): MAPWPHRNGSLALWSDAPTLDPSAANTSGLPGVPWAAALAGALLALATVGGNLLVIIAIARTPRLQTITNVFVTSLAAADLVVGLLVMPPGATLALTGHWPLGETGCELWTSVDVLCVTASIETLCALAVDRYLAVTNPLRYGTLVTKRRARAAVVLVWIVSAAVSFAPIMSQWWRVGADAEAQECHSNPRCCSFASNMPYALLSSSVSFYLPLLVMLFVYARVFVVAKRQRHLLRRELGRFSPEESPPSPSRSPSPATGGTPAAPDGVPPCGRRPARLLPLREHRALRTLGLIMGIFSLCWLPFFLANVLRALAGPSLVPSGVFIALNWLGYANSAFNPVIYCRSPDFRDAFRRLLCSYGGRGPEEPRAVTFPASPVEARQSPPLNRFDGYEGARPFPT
Experimental: (§2) Tissue Collection. After 4 weeks of drug treatment, a subset of 10 animals from each group was killed. The epididymal white adipose tissue (EWAT), retroperitoneal (RP) fat, interscapular brown adipose tissue (IBAT) fat pads and gastrocnemius muscle were removed, trimmed, washed, and all tissues were flash-frozen in liquid nitrogen and stored at −80° C. for later determination of β3AR, (EWAT) UCP1 expression (IBAT and RP), UCP2 and 3 expression (IBAT) as well as β3AR-stimulated adenylyl cyclase activity (EWAT).
Preparation of plasma membranes and adenylyl cyclase assay. Adipose tissue was isolated from each group of animals. The tissues from 4 mice per group were pooled and minced and then plasma membranes prepared as previously described (Collins et al, Mol. Endocrinol. 8:518-527 (1994)). Adenylyl cyclase activity was measured using established methods, and the cAMP formed was measured by RIA (Harper et al, J. Cyclic Nucleotide Res. 1:207-218 (1975)) using a polyclonal anti-serum to cAMP (Gettys et al, J. Biol. Chem. 266:15949-15955 (1991)). Protein concentrations were determined by the Bradford method (Bradford. Anal. Biochem 72:248-254 (1976)).

[3] = test system: glucose transport into white adipose tissue and muscle; assay: Glucose transport into adipose and muscle tissues (14C 2-deoxyglucose accumulation); format: in vivo, B6 mice; conditions: compared to HF control group
Experimental: as §1
Glucose Transport. Basal glucose transport into white adipose tissue and muscle was assessed following the method of Skillman and Fletcher (Skillman et al, Exp. Clin. Endocrinol. 87:288-298 (1986)) with minor modifications. Five mice from each group were injected i.p. with 50 mg/kg 2-deoxyglucose (20 μCi/kg ^14C 2-deoxyglucose) mixed with 2-deoxyglucose (final specific activity was 66 μCi/mmole). Twenty minutes later the mice were killed by cervical dislocation. […] The samples were neutralized with 1 M HCl and the ^14C content determined.

[4] = Fat pad weight and estimate of percent body fat; format: in vivo, B6 mice; conditions: wet weight after 4 weeks of drug treatment
Experimental: Animals and Diets. Seventy-five 4-week old B6 male mice were obtained from Jackson Laboratories (Bar Harbor, Me.). The animals were housed 5 per cage in a temperature controlled (22° C.) room with a 12 hour light/dark cycle (lights off at 19:00). The HF and low fat (LF) experimental diets were manufactured by Research Diets (New Brunswick, N.J.), and contain 58% and 11% of calories from fat, respectively. The composition of these diets have been described in detail elsewhere (Surwit et al. Metabolism 44:645-651 (1995)). A group of 60 mice were fed the HF diet for the first four weeks of the study; the remaining 15 mice were fed the LF diet. The mice assigned to the LF diet were maintained on this diet throughout the study as a reference group of lean control mice. At week 4, all HF-fed mice were assigned to 4 groups of 15 mice each. The first group remained on the HF diet throughout the study as the “obese” control group. […] This dose had originally been recommended by Dr. Thomas Claus, of Lederle Laboratories and found to be differentially effective in reducing obesity in obesity-prone B6 and obesity-resistant A/J mice (Collins et al, Obes. Res. 43:83-86 5:6S (1997)). The Dz concentration in the diets was 3.2 g/kg (0.32%) was determined to be the maximally effective dose for weight-reduction in dose-response pilot studies. Tissue Collection. After 4 weeks of drug treatment, a subset of 10 animals from each group was killed. […] Percent Body Fat. The percent body fat was estimated from the weight of the epididymal fat pad. It has been shown that, as a proportion of total body weight, the epididymal fat pad weight is highly correlated with percent body fat (Rogers et al, Brit. J. Nutr. 43:83-86 (1980), Eisen et al, Growth 45:100-107 (1981)).

UCP1 mRNA = assay: Northern blot, UCP1 mRNA in IBAT and RP; format: in vivo, B6 mice; conditions: compared to the HF control
UCP3 = UCP3 expression in IBAT; format: in vivo; conditions: HF-fed B6 mice
Experimental: as §2
Isolation and Analysis of RNA. Total cellular RNA was prepared using the tissues of 6 mice per group by the cesium chloride gradient method as detailed (Chirgwin et al, Biochemistry 18:5294-5399 (1979)). For Northern blot hybridization, RNA was denatured by the glyoxal procedure, fractionated through 1.2% agarose gels, and blotted onto Biotrans (ICN) nylon membranes (Collins et al, J. Biol. Chem. 263:9067-9070 (1988)). […] A rat cDNA probe for cyclophilin was used as an internal hybridization/quantitation standard. Blots were hybridized and washed as previously described (Collins et al, Mol. Endocrinol. 8:518-527 (1994), (Thomas. Proc. Natl. Acad. Sci. USA 77:5201-5205 (1980)). The intensity of hybridization signals was quantified by PhosphorImager (ImageQuant/Storm) and normalized to the values for cyclophilin.

Structure (SMILES) | Fasting plasma glucose ([1]; compared to pretreatment) | β3AR mRNA levels in EWAT (β3AR mRNA) | NEFA [2] | Adenylyl cyclase activity in response to CL in EWAT plasma membranes (β3AR) | Glucose transport into EWAT [3] | Glucose transport into RP ([3]; ANOVA trend p=0.07) | Epididymal Fat Pad Weight [4] | Retroperitoneal Fat Pad Weight [4] | UCP1 mRNA levels in IBAT (UCP1 mRNA) | Fasting plasma insulin ([1]; end of / throughout the study, compared to pretreatment) | Leptin ([1]; plasma, at the conclusion of the study, HF diet + drug for 4 weeks) | UCP3 expression in IBAT (UCP3)
C[C@H](Cc1ccc2c(c1)OC(C(=O)[O-])(C(=O)[O-])O2)NC[C@H](O)c1cccc(Cl)c1.[Na+].[Na+] [CL, disodium (R,R)-5-[2[[2-(3-chlorophenyl)-2-hydroxyethyl]-amino]propyl]-1,3-benzodioxole-2,2-dicarboxylate] | returned to the pretreatment values | failed to restore β3AR expression or function | 0.69 +/− 0.04^b mEq/L | a general decrease in adenylyl cyclase activity | improved glucose transport into EWAT | enhanced glucose transport | 0.943 +/− 0.129^b grams | 0.200 +/− 0.024^b grams | greater increase in UCP1 expression | – | – | –
CC1=NS(=O)(=O)c2cc(Cl)ccc2N1 [Dz, diazoxide] | remained lower than pretreatment levels throughout the study | levels comparable to the LF fed controls | 0.82 +/− 0.08^b mEq/L | restored the efficacy of the β3AR to stimulate adenylyl cyclase | did not reach a statistically significant level | – | 0.691 +/− 0.083^b,c grams | 0.123 +/− 0.014^b,c grams | greater increase in UCP1 expression | remained significantly below pretreatment levels throughout the study | 4.2 +/− 0.8^c ng/ml | significant increase in UCP3 expression in IBAT
